The assay deals with T1, Human PD-L1/PD-1 (Homo sapiens, UniProt Q9NZQ7).
T1 construct: TVMV protease cleavage site (C); made in house; host or cells: HEK293T cells
Nature of the assay: HTRF Human PD-L1/PD-1 binding assay (PD-1-Ig/PD-L1-His). The following applies: PD-L1-His 10 nM, PD-1-Ig 20 nM; class symbol; read-out: HTRF Human PD-L1/PD-1 Binding Assay IC50 Range. The gist of the method: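 Inhibitors were preincubated 15 min with human PD-L1(18-239)-His (10 nM final), then PD-1(25-167)-Ig (20 nM final) was added for 15 min in dPBS/0.1% BSA/0.05% Tween-20. Eu-cryptate anti-Ig (1 nM) and APC anti-His (20 nM) were added; 665/620 nm ratio read after 30 min.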

Molecules are shown by their SMILES. Where a SMILES comes first, the peptide text is derived from it. Bridges are numbered along the chain shown (N, C = ends). [ ]: non-standard residue; d: D form. ξ: configuration not given here. Trp(1-CH2COOH) = N[C@@H](Cc1cn(CC(=O)O)c2ccccc12)C(=O)O; Trp(βS-Me) = C[C@@H](c1c[nH]c2ccccc12)[C@H](N)C(=O)O; Phe(3,4,5-F3) = N[C@@H](Cc1cc(F)c(F)c(F)c1)C(=O)O; Trp(1-Me) = Cn1cc(C[C@H](N)C(=O)O)c2ccccc21; Morpholine(3S-CO) = O=C(O)[C@@H]1COCCN1; d(cisHyp) = O=C(O)[C@H]1C[C@@H](O)CN1; Hyp = O=C(O)[C@@H]1C[C@@H](O)CN1; NMeF = CN[C@@H](Cc1ccccc1)C(=O)O; NMeNle = CCCC[C@H](NC)C(=O)O; NMeM = CN[C@@H](CCSC)C(=O)O; dNle = CCCC[C@@H](N)C(=O)O; Pip = O=C(O)[C@@H]1CCCCN1; hSer = N[C@@H](CCO)C(=O)O; NMeA = CN[C@@H](C)C(=O)O; Dap = NC[C@H](N)C(=O)O; ξC = NC(CS)C(=O)O

Here are results for eleven molecules from patent publication US10538555B2, “Macrocyclic inhibitors of the PD-1/PD-L1 and CD80(B7-1)/PD-L1 protein/protein interactions” (BRISTOL-MYERS SQUIBB COMPANY, priority 2014, dated 2020).

T1 sequence (Q9NZQ7 with tags, fused parts or gaps): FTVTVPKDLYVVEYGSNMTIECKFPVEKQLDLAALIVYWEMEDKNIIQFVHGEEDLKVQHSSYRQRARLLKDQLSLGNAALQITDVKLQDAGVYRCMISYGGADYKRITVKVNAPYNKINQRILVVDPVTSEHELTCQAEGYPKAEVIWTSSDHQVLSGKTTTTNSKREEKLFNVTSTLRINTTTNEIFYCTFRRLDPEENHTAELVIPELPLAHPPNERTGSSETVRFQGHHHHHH

As for `CCCC[C@H]1C(=O)N(C)[C@@H](CCCC)C(=O)N[C@@H](C)C(=O)N[C@H](C(=O)NCC(N)=O)CSCC(=O)N[C@@H](Cc2ccc(O)cc2)C(=O)N(C)[C@@H](C)C(=O)N[C@@H](CC(=O)O)C(=O)N2CCC[C@H]2C(=O)N[C@@H](Cc2cnc[nH]2)C(=O)N[C@@H](CCCCN)C(=O)N2C[C@H](O)C[C@H]2C(=O)N[C@@H](Cc2c[nH]c3ccccc23)C(=O)N[C@@H](CO)C(=O)N[C@@H](Cc2c[nH]c3ccccc23)C(=O)N1C` [Example 1247] ({CH2CO}-Y[NMeA]DPHK[Hyp]WSW[NMeNle][NMeNle]ACG-NH2; thioether N-14), the IC50 was 10 to 99.9 nM.
The value for `CCCC[C@H]1C(=O)N(C)[C@@H](CCCC)C(=O)N[C@@H](C)C(=O)NC(C(=O)NCC(N)=O)CSCC(=O)N[C@@H](Cc2ccc(O)cc2)C(=O)N(C)[C@@H](C)C(=O)N[C@@H](CC(N)=O)C(=O)N2CCC[C@H]2C(=O)N[C@@H](CC(N)=O)C(=O)N[C@@H](CC(C)C)C(=O)N2C[C@H](O)C[C@H]2C(=O)N[C@@H](Cc2c[nH]c3ccccc23)C(=O)N[C@@H](CO)C(=O)N[C@@H](Cc2c[nH]c3ccccc23)C(=O)N1C` (some centres unmarked) [Example 9134] was 1 to 9.9 nM.
Consider `CCCC[C@H]1C(=O)N2CCC[C@@H]2C(=O)N[C@@H](CC(=O)O)C(=O)N[C@@H](C(C)C)C(=O)N(C)[C@@H](Cc2ccccc2)C(=O)N[C@@H](CC(=O)O)C(=O)N2C[C@H](O)C[C@@H]2C(=O)N[C@@H](Cc2c[nH]c3ccccc23)C(=O)N[C@@H](Cc2ccc(O)cc2)C(=O)N[C@@H](CCO)C(=O)N[C@H](C(=O)NCC(N)=O)CSCC(=O)N[C@@H](Cc2cc(F)c(F)c(F)c2)C(=O)N(C)[C@@H](Cc2ccccc2)C(=O)N1C` [Example 10172] ({CH2CO}-[Phe(3,4,5-F3)][NMeF][NMeNle][dP]DV[NMeF]D[d(cisHyp)]WY[hSer]CG-NH2; thioether N-13), for which the IC50 was in the range of 10 to 99.9 nM.
As for `CCCC[C@H]1C(=O)N(C)[C@@H](CCCC)C(=O)N[C@@H](C)C(=O)N[C@H](C(=O)NCC(N)=O)CSCC(=O)N[C@@H](Cc2ccc(O)cc2)C(=O)N(C)[C@@H](C)C(=O)N[C@@H](CC(=O)O)C(=O)N2CCC[C@H]2C(=O)N[C@@H](Cc2c[nH]cn2)C(=O)N[C@@H](CCC(N)=O)C(=O)N2C[C@H](O)C[C@H]2C(=O)N[C@@H](Cc2c[nH]c3ccccc23)C(=O)N[C@@H](CO)C(=O)N[C@@H](Cc2cn(C)c3ccccc23)C(=O)N1C` [Example 1501] ({CH2CO}-Y[NMeA]DPHQ[Hyp]WS[Trp(1-Me)][NMeNle][NMeNle]ACG-NH2; thioether N-14), the IC50 lay in the range of 10 to 99.9 nM.
The value for `CCCC[C@H]1C(=O)N(C)[C@@H](CCCC)C(=O)N[C@@H](CCC(=O)O)C(=O)N[C@H](C(=O)NCC(N)=O)CSCC(=O)N[C@@H](Cc2ccc(O)cc2)C(=O)N(C)[C@@H](C)C(=O)N[C@@H](CC(N)=O)C(=O)N2CCC[C@H]2C(=O)N[C@@H](CN)C(=O)N[C@@H](CC(C)C)C(=O)N2C[C@H](O)C[C@H]2C(=O)N[C@@H](Cc2c[nH]c3ccccc23)C(=O)N[C@@H](CO)C(=O)N[C@@H](Cc2cn(CC(=O)O)c3ccccc23)C(=O)N1C` [Example 6137] ({CH2CO}-Y[NMeA]NP[Dap]L[Hyp]WS[Trp(1-CH2COOH)][NMeNle][NMeNle]ECG-NH2; thioether N-14) was 10 to 99.9 nM.
Then `CCCC[C@H]1NC(=O)[C@H](Cc2c[nH]c3ccccc23)NC(=O)[C@H](CO)NC(=O)[C@H](Cc2c[nH]c3ccccc23)NC(=O)[C@@H]2C[C@@H](O)CN2C(=O)[C@H](CCC(N)=O)NC(=O)[C@H](Cc2cnc[nH]2)NC(=O)[C@@H]2CCCN2C(=O)[C@H](CC(=O)O)NC(=O)[C@H](C)N(C)C(=O)[C@H](Cc2ccc(O)cc2)NC(=O)CSCC(C(=O)NCC(N)=O)NC(=O)[C@H](CCC(=O)O)NC(=O)[C@H](CCCC)N(C)C1=O` (some centres unmarked) [Example 10128] ({CH2CO}-Y[NMeA]DPHQ[Hyp]WSW[dNle][NMeNle]E[ξC]G-NH2; thioether N-14), with 1000 to 10000 nM; and `CSCC[C@H]1C(=O)N2C[C@H](O)C[C@H]2C(=O)N[C@@H](CC(=O)O)C(=O)N[C@@H](C(C)C)C(=O)N(C)[C@@H](Cc2ccccc2)C(=O)N[C@@H](Cc2ccc(O)cc2)C(=O)N2C[C@H](O)C[C@H]2C(=O)N[C@@H](Cc2c[nH]c3ccccc23)C(=O)N[C@@H](Cc2ccc(O)cc2)C(=O)N[C@@H](CC(C)C)C(=O)N[C@H](C(=O)NCC(N)=O)CSCC(=O)N[C@@H](Cc2ccccc2)C(=O)N(C)[C@@H](Cc2ccccc2)C(=O)N1C` [Example 9166] ({CH2CO}-F[NMeF][NMeM][Hyp]DV[NMeF]Y[Hyp]WYLCG-NH2; thioether N-13), with 1000 to 10000 nM; and `CCCC[C@H]1C(=O)N(C)[C@@H](CCCC)C(=O)N[C@@H](CO)C(=O)N[C@H](C(=O)NCC(N)=O)CSCC(=O)N[C@@H](Cc2ccc(OC)cc2)C(=O)N(C)[C@@H](C)C(=O)N[C@@H](CC(N)=O)C(=O)N2CCC[C@H]2C(=O)N[C@@H](Cc2c[nH]cn2)C(=O)N[C@@H](CCC(N)=O)C(=O)N2C[C@H](O)C[C@H]2C(=O)N[C@@H](Cc2c[nH]c3ccccc23)C(=O)N[C@@H](CO)C(=O)N[C@@H](Cc2c[nH]c3ccccc23)C(=O)N1C` [Example 7137] ({CH2CO}-Y(Me)[NMeA]NPHQ[Hyp]WSW[NMeNle][NMeNle]SCG-NH2; thioether N-14), with 1 to 9.9 nM.
As to `CCCC[C@H]1C(=O)N[C@@H](CC(=O)O)C(=O)N2CCC[C@H]2C(=O)N[C@@H](Cc2c[nH]cn2)C(=O)N[C@@H](CCC(N)=O)C(=O)N2C[C@H](O)C[C@H]2C(=O)N[C@@H]([C@@H](C)c2c[nH]c3ccccc23)C(=O)N[C@@H](CO)C(=O)N[C@@H](Cc2c[nH]c3ccccc23)C(=O)N(C)[C@@H](C)C(=O)N(C)[C@@H](C)C(=O)N[C@@H](CCC(=O)O)C(=O)N[C@H](C(=O)NCC(N)=O)CSCC(=O)N[C@@H](Cc2ccc(O)cc2)C(=O)N1C` [Example 10544] ({CH2CO}-Y[NMeNle]DPHQ[Hyp][Trp(βS-Me)]SW[NMeA][NMeA]ECG-NH2; thioether N-14), the IC50 is 1000 to 10000 nM.
For `CCCC[C@H]1C(=O)N(C)[C@@H](CCCC)C(=O)N[C@@H](CCC(=O)O)C(=O)N[C@H](C(=O)NCC(N)=O)CSCC(=O)N[C@@H](Cc2ccc(O)cc2)C(=O)N2CCCC[C@H]2C(=O)N[C@@H](CC(N)=O)C(=O)N2CCC[C@H]2C(=O)N[C@@H](Cc2cnc[nH]2)C(=O)N[C@@H](CCC(N)=O)C(=O)N2C[C@H](O)C[C@H]2C(=O)N[C@@H](Cc2c[nH]c3ccccc23)C(=O)N[C@@H](CO)C(=O)N[C@@H](Cc2c[nH]c3ccccc23)C(=O)N1C` [Example 1250] ({CH2CO}-Y[Pip]NPHQ[Hyp]WSW[NMeNle][NMeNle]ECG-NH2; thioether N-14), the IC50 lay in the range of 1 to 9.9 nM.
For `CCCC[C@H]1C(=O)N(C)[C@@H](CCCC)C(=O)N[C@@H](C)C(=O)N[C@H](C(=O)NCC(N)=O)CSCC(=O)N[C@@H](Cc2ccc(O)cc2)C(=O)N2CCOC[C@H]2C(=O)N[C@@H](CC(=O)O)C(=O)N2CCC[C@H]2C(=O)N[C@@H](Cc2cnc[nH]2)C(=O)N[C@@H](CCC(N)=O)C(=O)N2C[C@H](O)C[C@H]2C(=O)N[C@@H](Cc2c[nH]c3ccccc23)C(=O)N[C@@H](CO)C(=O)N[C@@H](Cc2c[nH]c3ccccc23)C(=O)N1C` [Example 1514] ({CH2CO}-Y[Morpholine(3S-CO)]DPHQ[Hyp]WSW[NMeNle][NMeNle]ACG-NH2; thioether N-14), the IC50 was 1 to 9.9 nM.
